Measured values published in the supplement of paper PMC4649846.

Assays:
MDA-MB-231 [1] = assay: drug sensitivity score (DSS); higher = more sensitive; extreme values may be limits of the assay; conditions: incubation time: 72 h
Outline: (§1)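 For the IC50 and drug sensitivity score, logistic dose–response curves were fitted in Dotmatics Studies. The score compares curve area with a reference area and is normalised by log of top response. Input data were CellTiter-Blue fluorescence readings from MDA-MB-231 cells, transfected a day earlier with BRCA1 or non-targeting control siRNA, that had spent 72 h at 37 °C and 5% CO2 at 4000 cells per well in 384-well plates with compounds at 5 concentrations.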

MDA-MB-231 [2] = conditions: incubation time: 72 h
Outline: as §1

[3] = siRNA: siControl (non-targeting)

| SMILES | IC50 of cell viability (MDA-MB-231 [2]; siRNA: siBRCA1) [nM] | IC50 of cell viability (MDA-MB-231 [2]; [3]) [nM] | drug sensitivity score (MDA-MB-231 [1]; siRNA: siBRCA1) | drug sensitivity score (MDA-MB-231 [1]; [3]) |
| --- | --- | --- | --- | --- |
| CN1CCC(COc2cnc(-c3cccc(Cn4nc(-c5cccc(C#N)c5)ccc4=O)c3)nc2)CC1 | 3770 | 4020 | 3.92 | 3.58 |
| CS(=O)(=O)c1ccc(C(=O)Nc2ccc(Cl)c(-c3ccccn3)c2)c(Cl)c1 [Vismodegib] | > 4170 | > 4170 | 0 | 0 |
| CC(C)Cn1cnc2c(N)nc3ccccc3c21 [Imiquimod] | > 4170 | > 4170 | 0 | 0 |
| Cn1cc(C2=C(c3cn(C4CCN(Cc5ccccn5)CC4)c4ccccc34)C(=O)NC2=O)c2ccccc21 [Enzastaurin] | > 4170 | > 4170 | 0 | 0 |
| N#CC[C@H](C1CCCC1)n1cc(-c2ncnc3[nH]ccc23)cn1 [Ruxolitinib] | > 4170 | > 4170 | 0 | 0 |
| Cc1ccc(NC(=O)c2ccc(CN3CCN(C)CC3)cc2)cc1Nc1nccc(-c2cccnc2)n1 [Imatinib] | > 4170 | > 4170 | 0 | 0 |
| Oc1nc(-c2ccc(C(F)(F)F)cc2)nc2c1CSCC2 [XAV-939] | 2820 | 230 | 1.98 | 4 |
| O=NN(CCCl)C(=O)NC1CCCCC1 [Lomustine] | > 4170 | > 4170 | 0 | 0 |
| Cn1c(=O)n(-c2ccc(C(C)(C)C#N)cc2)c2c3cc(-c4cnc5ccccc5c4)ccc3ncc21 [NVP-BEZ235 (Dactolisib)] | 8.83 | 10.2 | 16.9 | 16.6 |
| c1cc(CN2CCCNCCNCCCNCC2)ccc1CN1CCCNCCNCCCNCC1 [Plerixafor] | 2080 | 2080 | 0 | 0 |
| Nc1cccc2c1CN(C1CCC(=O)NC1=O)C2=O (stereo not drawn) [Lenalidomide] | > 4170 | > 4170 | 0 | 0 |
| O=S(=O)(c1cccc2cnccc12)N1CCCNCC1 [Fasudil] | > 4170 | > 4170 | 0 | 0 |
| O=C1CCC(N2C(=O)c3ccccc3C2=O)C(=O)N1 (stereo not drawn) [Thalidomide] | > 4170 | > 4170 | 0 | 0 |
| O=C(O)C1(C(=O)O)CCC1.[NH2-].[NH2-].[Pt+2] [Carboplatin] | > 4170 | > 4170 | 0 | 0 |
| Clc1ccc(Nc2nnc(Cc3ccncc3)c3ccccc23)cc1 [Vatalanib] | > 4170 | > 4170 | 0 | 0 |
| CC(C)C[C@H](NC(=O)[C@H](CCc1ccccc1)NC(=O)CN1CCOCC1)C(=O)N[C@@H](Cc1ccccc1)C(=O)N[C@@H](CC(C)C)C(=O)[C@@]1(C)CO1 [Carfilzomib] | 4.01 | 13.6 | 39.3 | 33.7 |
| NC1(c2ccc(-c3nc4ccn5c(=O)[nH]nc5c4cc3-c3ccccc3)cc2)CCC1 [MK-2206] | > 4170 | > 4170 | 0 | 0 |

Further lines, with some results ahead:

| IC50 of cell viability (MDA-MB-231 [2]; siRNA: siBRCA1) [nM] | IC50 of cell viability (MDA-MB-231 [2]; [3]) [nM] | SMILES | drug sensitivity score (MDA-MB-231 [1]; siRNA: siBRCA1) | drug sensitivity score (MDA-MB-231 [1]; [3]) |
| --- | --- | --- | --- | --- |
| > 4170 | > 4170 | CC[C@@H]1C(=O)OC[C@@H]1Cc1cncn1C [Pilocarpine] | 0 | 0 |
| 591 | 294 | Nc1ccn([C@@H]2O[C@H](CO)[C@@H](O)[C@@H]2O)c(=O)n1 [Cytarabine] | 5.84 | 6.18 |
| > 4170 | 1190 | C[C@@]1(C(=O)Nc2ccc(F)nc2)CCCN1c1nc(Nc2cc(C3CC3)n[nH]2)c2cccn2n1 | 3.5 | 7.43 |
| 5.32 | 3.55 | CC[C@]1(O)C[C@H]2CN(CCc3c([nH]c4ccccc34)[C@@](C(=O)OC)(c3cc4c(cc3OC)N(C=O)[C@H]3[C@@](O)(C(=O)OC)[C@H](OC(C)=O)[C@]5(CC)C=CCN6CC[C@]43[C@@H]65)C2)C1 [Vincristine] | 31.3 | 32.2 |
| > 4170 | > 4170 | O=C(c1ccc(OCCN2CCCCC2)cc1)c1c(-c2ccc(O)cc2)sc2cc(O)ccc12 [Raloxifene] | 0 | 0 |
| > 4170 | > 4170 | COc1nc(N)nc2c1ncn2[C@@H]1O[C@H](CO)[C@@H](O)[C@@H]1O [Nelarabine] | 0 | 0 |
| 869 | 1290 | COc1c(C)cnc(Cn2cnc3c(Cl)nc(N)nc32)c1C [BIIB021] | 8.95 | 9.35 |
| > 4170 | > 4170 | C[C@]12C=CC(=O)C=C1CC[C@@H]1[C@@H]2C(=O)C[C@@]2(C)[C@H]1CC[C@]2(O)C(=O)CO [Prednisone] | 0 | 0 |
| 181 | 150 | CN1CC[C@H](c2c(O)cc(O)c3c(=O)cc(-c4ccccc4Cl)oc23)[C@H](O)C1 [Alvocidib] | 18.8 | 20.2 |
| > 4170 | 2460 | COc1cc2nccc(Oc3ccc(NC(=O)Nc4cc(C)on4)c(Cl)c3)c2cc1OC [Tivozanib] | 3.36 | 2.37 |
| > 4170 | > 4170 | CCCCCOC(=O)Nc1nc(=O)n([C@@H]2O[C@H](C)[C@@H](O)[C@H]2O)cc1F [Capecitabine] | 0 | 0 |
| > 4170 | 865 | CC(=O)Nc1ccc(C(=O)Nc2ccccc2N)cc1 [CI-994] | 0 | 2.63 |
| 11 | 11.3 | Cc1nc(Nc2ncc(C(=O)Nc3c(C)cccc3Cl)s2)cc(N2CCN(CCO)CC2)n1 [Dasatinib] | 27 | 27 |
| > 4170 | > 4170 | CN1CCN(c2ccc3nc(-c4c(N)c5c(F)cccc5[nH]c4=O)[nH]c3c2)CC1 [Dovitinib] | 0 | 0 |
| 6.91 | 18.6 | CC(C)C[C@H](NC(=O)[C@H](Cc1ccccc1)NC(=O)c1cnccn1)B(O)O [Bortezomib] | 37.9 | 32.2 |
| 917 | 358 | COc1cc(Nc2ncc3c(n2)-c2ccc(Cl)cc2C(c2c(F)cccc2OC)=NC3)ccc1C(=O)O [MLN8237 (Alisertib)] | 4.61 | 8.75 |
| 1150 | > 4170 | CS(=O)(=O)CCNCc1ccc(-c2ccc3ncnc(Nc4ccc(OCc5cccc(F)c5)c(Cl)c4)c3c2)o1 [Lapatinib] | 4.84 | 0 |
| > 4170 | > 4170 | O=C(c1cc(Cc2n[nH]c(=O)c3ccccc23)ccc1F)N1CCN(C(=O)C2CC2)CC1 [Olaparib] | 0 | 0 |
| 31.7 | 27.5 | Cc1[nH]c2ccccc2c1CCNCc1ccc(/C=C/C(=O)NO)cc1 [Panobinostat] | 28.7 | 29.6 |
| > 4170 | > 4170 | Cc1ccc(Nc2nccc(N(C)c3ccc4c(C)n(C)nc4c3)n2)cc1S(N)(=O)=O [Pazopanib] | 0 | 0 |
| 5.72 | 5.65 | CC[C@]1(O)C[C@@H]2CN(CCc3c([nH]c4ccccc34)[C@@](C(=O)OC)(c3cc4c(cc3OC)N(C)[C@H]3[C@@](O)(C(=O)OC)[C@H](OC(C)=O)[C@]5(CC)C=CCN6CC[C@]43[C@@H]65)C2)C1 [Vinblastine] | 31.4 | 30.9 |
| 132 | 50 | O=C(NC[C@H](O)CO)c1ccncc1Nc1ccc(I)cc1F | 16 | 17.4 |
| 3.75 | 3.56 | COCC[n+]1c2c(n(Cc3cnccn3)c1C)C(=O)c1ccccc1C2=O [YM155] | 40.2 | 40.6 |
| 6.6 | 11.2 | CC(=O)O[C@H]1C(=O)[C@@]2(C)[C@H]([C@H](OC(=O)c3ccccc3)[C@]3(O)C[C@H](OC(=O)[C@H](O)[C@@H](NC(=O)c4ccccc4)c4ccccc4)C(C)=C1C3(C)C)[C@]1(OC(C)=O)CO[C@@H]1C[C@@H]2O [Paclitaxel] | 29.8 | 27.2 |
| > 4170 | > 4170 | COc1cc(OC2CCN(C)CC2)ccc1Nc1ncc2c(n1)n(C1CCCC1)c(=O)n2C [AZ 3146] | 0 | 0 |
